Source: patent US12171748B2, “Nitroimidazole formulations” (priority 2018, dated 2024)
Counter-ions that a name gives are not always drawn.

Assays:
[1] = cited from earlier work; for solubility in hot/boiling ethanol: hot or boiling ethanol; for solubility in hot/boiling water: hot or boiling water
[2] = cited from earlier work
[3] = system: 6 strains of C. difficile; assay: Checkerboard assay for antibiotic combinations; type: cell-based, Clostridium difficile; set-up: unit not given here
Protocol: The three combinations below were tested vs. 6 strains of C. difficile following the experimental protocols and synergy calculations set out in Magi et al. 2015. • Berberine+Metronidazole • Berberine+Vancomycin • Metronidazole+Vancomycin
In accordance with Magi et al. 2015, synergy is calculated using the equation below: ΣFIC=FICA+FICB=MICA (combine)/MICA (alone)+MICB (combine)/MICB (alone)
When ΣFIC≤0.5, synergy is observed.

[4] = system: ribotype 027 C. difficile strain (M7404); assay: In vivo mouse trial; set-up: species or system C57BL6/J mice
Protocol: Groups of five, six week old, male, C57BL6/J mice were pre-treated with an antibiotic cocktail in the drinking water containing kanamycin (0.4 mg/ml), gentamicin (0.035 mg/ml), colistin (850 U/ml), metronidazole (0.215 mg/ml), vancomycin (0.045 mg/ml) and cefaclor (0.3 mg/ml) for 7 days, followed by three days of cefaclor alone. These antibiotics disrupt the resident microbiota and induce susceptibility to infection with Clostridium difficile. On the day of infection, antibiotic pre-treatment was ceased and mice were switched to plain drinking water prior to infection with a ribotype 027 C. difficile strain (M7404) at a dose of 10^5 spores/mouse by oral gavage. Eight hours post-infection, mice were orally administered 100 ul of the respective treatments, followed by the immediate addition of the treatment to the drinking water. The treatments were replenished fresh daily. The mice were monitored twice daily for signs of infection and faecal samples were analysed by microbiological techniques for the presence of C. difficile spores. Mice were humanely killed when they reached ethical endpoints, which include 10% acute weight loss (in the first 24 hours) or 15% chronic weight loss.

[5] = system: six strains of C. difficile; assay: MIC/MBC of compounds against six strains of C. difficile; type: cell-based, Clostridium difficile; details: vs. the six strains
Protocol: Eleven natural compounds, metronidazole and a positive control, vancomycin, were tested against six strains of C. difficile as shown in Table 4. […] The eleven natural compounds, or combinations, tested were: • 1. […] Matrine • 6. […] Andrographolide • 8. […] The natural compounds, metronidazole and vancomycin were obtained from commercial sources, e.g. Sigma-Aldrich.

[6] = single agent 50 mg/kg, oral and drinking water, infected mice

**Q.** Which “solubility in ethanol at ambient temperature” value ([1]; ethanol at ambient temperature) does the source give for `C=C1CC[C@@H]2[C@](C)(CO)[C@H](O)CC[C@@]2(C)[C@@H]1C/C=C1/C(=O)OC[C@H]1O` [Andrographolide] here?
**A.** The value was “poorly soluble”.

**Q.** What about the “solubility in hot/boiling ethanol” value [1] of the same molecule?
**A.** The value was “soluble”.

**Q.** And the solubility in water [1]?
**A.** The solubility in water was “almost insoluble”.

**Q.** Which results are given for `O=C1C=CC2(CCC23C=CC(=O)O3)O1` (stereo not shown) [Anemonin]?
**A.** solubility in cold water ([1]; cold water): slightly soluble; solubility in hot/boiling ethanol [1]: soluble; solubility in hot/boiling water [1]: soluble

**Q.** Which solubility in ethanol [1] does the source give for `COC(=O)C1=CCCN(C)C1` [Arecoline] here?
**A.** Its solubility in ethanol is “produces a solution”.

**Q.** What about the solubility in water [1] of the same molecule?
**A.** Its solubility in water is “produces a solution”.

**Q.** For `O=C(O)[C@H]1O[C@@H](Oc2cc3oc(-c4ccccc4)cc(=O)c3c(O)c2O)[C@H](O)[C@@H](O)[C@@H]1O` [Baicalin], which “stability in alkaline environment” value [2] is on record?
**A.** The value was “unstable”.

**Q.** What about the “solubility in N,N-dimethylformamide” value ([1]; N,N-dimethylformamide) of the same molecule?
**A.** Its value is “diffluent”.

**Q.** What about the “solubility in alkaline solution” value ([1]; alkaline solution, such as sodium bicarbonate, sodium carbonate, sodium hydroxide) of the same molecule?
**A.** Its value is “soluble”.

**Q.** And the solubility in water [1]?
**A.** Its solubility in water is “almost insoluble”.

**Q.** For `COc1ccc2cc3[n+](cc2c1OC)CCc1cc2c(cc1-3)OCO2` [Berb], which “MICBerb (alone)” value ([3]; Replicate 1) is on record?
**A.** Its value is 1024.

**Q.** What about the “MICBerb (combine)” value ([3]; Replicate 1, pair 128, 0.5) of the same molecule?
**A.** The value was 128.

**Q.** And the “MICBerb (alone)” value ([3]; Replicate 2)?
**A.** Its value is 512.

**Q.** And the “MICBerb (combine)” value ([3]; Replicate 2, pair 128, 0.5)?
**A.** The value was 128.

**Q.** And the “survival time of mice” value ([4]; either 25 mg/kg or 50 mg/kg)?
**A.** Its value is “did not increase the survival time”.

**Q.** What about the “survival D0” value ([4]; single agent 25 mg/kg) of the same molecule?
**A.** Its value is 100%.

**Q.** What about the “survival D1” value ([4]; single agent 25 mg/kg) of the same molecule?
**A.** Its value is 0%.

**Q.** What about the “survival D1½” value ([4]; single agent 25 mg/kg) of the same molecule?
**A.** The value was 0%.

**Q.** And the “survival D1¾” value ([4]; single agent 25 mg/kg)?
**A.** The value was 0%.

**Q.** And the “survival D2” value ([4]; single agent 25 mg/kg)?
**A.** The value was 0%.

**Q.** What about the “survival D3” value ([4]; single agent 25 mg/kg) of the same molecule?
**A.** The value was 0%.

**Q.** And the “survival D4” value ([4]; single agent 25 mg/kg)?
**A.** The value was 0%.

**Q.** What about the “survival D1” value ([4]; single agent 50 mg/kg) of the same molecule?
**A.** The value was 20%.

**Q.** What about the “survival D1½” value ([4]; single agent 50 mg/kg) of the same molecule?
**A.** Its value is 0%.

**Q.** What about the “survival D1¾” value ([4]; single agent 50 mg/kg) of the same molecule?
**A.** The value was 0%.

**Q.** And the “survival D2” value ([4]; single agent 50 mg/kg)?
**A.** The value was 0%.

**Q.** What about the “survival D3” value ([4]; single agent 50 mg/kg) of the same molecule?
**A.** The value was 0%.

**Q.** What about the “survival D4” value ([4]; single agent 50 mg/kg) of the same molecule?
**A.** The value was 0%.

**Q.** What about the “survival D0” value [4, 6] of the same molecule?
**A.** The value was 100%.

**Q.** Which “MICMet (alone)” value ([3]; Replicate 1) does the source give for `Cc1ncc([N+](=O)[O-])n1CCO` [Metronidazole, 2-methyl-5-nitroimidazole-1-ethanol] here?
**A.** Its value is 1.

**Q.** What about the “MICMet (combine)” value ([3]; Replicate 1, pair 128, 0.5) of the same molecule?
**A.** Its value is 0.5.

**Q.** And the “MICMet (combine)” value ([3]; Replicate 1, pair 256, 0.25)?
**A.** Its value is 0.25.

**Q.** What about the “MICMet (combine)” value ([3]; Replicate 1, pair 256, 0.5) of the same molecule?
**A.** The value was 0.5.

**Q.** What about the “MICMet (alone)” value ([3]; Replicate 2) of the same molecule?
**A.** Its value is 2.

**Q.** What about the “MICMet (combine)” value ([3]; Replicate 2, pair 128, 0.5) of the same molecule?
**A.** The value was 0.5.

**Q.** What about the “MICMet (combine)” value ([3]; Replicate 2, pair 256, 0.25) of the same molecule?
**A.** The value was 0.25.

**Q.** And the “MICMet (combine)” value ([3]; Replicate 2, pair 256, 0.5)?
**A.** The value was 0.5.

**Q.** What about the “mice survived to the end of the experiment (day 4)” value ([4]; Metronidazole (50 mg/kg) group) of the same molecule?
**A.** The value was 1/5.

**Q.** What about the “survival compared to untreated mice” value ([4]; either 25 mg/kg or 50 mg/kg) of the same molecule?
**A.** Its value is “no statistical difference in survival”.

**Q.** What about the “survival D0” value ([4]; single agent 25 mg/kg) of the same molecule?
**A.** The value was 100%.

**Q.** What about the “survival D1” value ([4]; single agent 25 mg/kg) of the same molecule?
**A.** Its value is 60%.

**Q.** And the “survival D1½” value ([4]; single agent 25 mg/kg)?
**A.** The value was 20%.

**Q.** What about the “survival D1¾” value ([4]; single agent 25 mg/kg) of the same molecule?
**A.** The value was 20%.

**Q.** And the “survival D2” value ([4]; single agent 25 mg/kg)?
**A.** Its value is 0%.

**Q.** What about the “survival D3” value ([4]; single agent 25 mg/kg) of the same molecule?
**A.** Its value is 0%.

**Q.** And the “survival D4” value ([4]; single agent 25 mg/kg)?
**A.** Its value is 0%.

**Q.** And the “survival D1” value ([4]; single agent 50 mg/kg)?
**A.** The value was 100%.

**Q.** What about the “survival D1½” value ([4]; single agent 50 mg/kg) of the same molecule?
**A.** The value was 100%.

**Q.** What about the “survival D1¾” value ([4]; single agent 50 mg/kg) of the same molecule?
**A.** The value was 100%.

**Q.** What about the “survival D2” value ([4]; single agent 50 mg/kg) of the same molecule?
**A.** The value was 20%.

**Q.** And the “survival D3” value ([4]; single agent 50 mg/kg)?
**A.** Its value is 20%.

**Q.** What about the “survival D4” value ([4]; single agent 50 mg/kg) of the same molecule?
**A.** The value was 20%.

**Q.** What about the “survival D0” value [4, 6] of the same molecule?
**A.** The value was 100%.

**Q.** With `COc1cc2c(cc1OC)-c1cc3ccc(OC)c(OC)c3c[n+]1CC2` [Palmatine chloride] as the molecule, how does the solubility in ethanol [1] read?
**A.** Its solubility in ethanol is “slightly soluble”.

**Q.** And the “solubility in hot/boiling water” value [1]?
**A.** The value was “soluble”.

**Q.** What about the solubility in water [1] of the same molecule?
**A.** The solubility in water was “sparingly soluble”.

**Q.** Which MBC range [5] does the source give for `CN[C@H](CC(C)C)C(=O)N[C@H]1C(=O)N[C@@H](CC(N)=O)C(=O)N[C@H]2C(=O)N[C@H]3C(=O)N[C@H](C(=O)N[C@H](C(=O)O)c4cc(O)cc(O)c4-c4cc3ccc4O)[C@H](O)c3ccc(c(Cl)c3)Oc3cc2cc(c3O[C@@H]2O[C@H](CO)[C@@H](O)[C@H](O)[C@H]2O[C@H]2C[C@](C)(N)[C@H](O)[C@H](C)O2)Oc2ccc(cc2Cl)[C@H]1O` [Vancomycin] here?
**A.** Its MBC range is no less than 1 µg/mL.

**Q.** With `COC(=O)C1=CCCN(C)C1` [arecoline hydrobromide] as the molecule, how does the solubility in ethanol [1] read?
**A.** Its solubility in ethanol is “diffluent”.

**Q.** And the solubility in water [1]?
**A.** Its solubility in water is “diffluent”.
